Experimental findings from ChEMBL document CHEMBL3045557, “A new benzil derivative from Derris scandens: Structure-insecticidal activity study” (2010) are described below.

Broadly, the mortality is the percentage killed.

The source made the active and inactive calls. The calls are words filed in the database; no cut-off is given here.

Experiment [1] has as its system Achaea janata. Nature of the experiment: Insecticidal activity against Achaea janata assessed as pupal weight at 4 ug/larva administered through topical application (reference value: 696.4 +/- 2.6 mg). It is filed as functional.
The test system of experiment [2] is Achaea janata. Put plainly: Insecticidal activity against Achaea janata assessed as larval mortality at 2 ug/larva administered through topical application. It is filed as functional.
In experiment [3] the test system is Achaea janata. Put plainly: Insecticidal activity against Achaea janata assessed as adult emergence at 4 ug/larva administered through topical application (reference value: 98.8 +/- 0.5 %). It is filed as functional.
Experiment [4] deals with Achaea janata. Nature of the experiment: Insecticidal activity against Achaea janata assessed as pupal mortality at 4 ug/larva administered through topical application. In kind it is functional.
For experiment [5], the system named is Achaea janata. Nature of the experiment: Insecticidal activity against Achaea janata assessed as adult deformity at 2 ug/larva administered through topical application. In kind it is functional.
Experiment [6] has as its system Achaea janata. Put plainly: Toxicity against Achaea janata at 10 ug/cm2 after 24 hr by leaf disk method. In kind it is functional.
Experiment [7] deals with Achaea janata. Nature of the experiment: Insecticidal activity against Achaea janata assessed as larval mortality at 4 ug/larva administered through topical application. It is filed as functional.
Experiment [8] deals with Achaea janata. Put plainly: Insecticidal activity against Achaea janata assessed as pupal duration at 4 ug/larva administered through topical application (reference value: 10.3 +/- 0.1 days). In kind it is functional.
Experiment [9] relates to Achaea janata. Put plainly: Antifeedant activity against Achaea janata at 2 ug/cm2 by conventional no-choice disk method. It is filed as functional, organism-based.
Experiment [10] deals with Achaea janata. Nature of the experiment: Insecticidal activity against Achaea janata assessed as pupal mortality at 2 ug/larva administered through topical application. In kind it is functional.
In experiment [11] the test system is Achaea janata. Nature of the experiment: Toxicity against Achaea janata after 24 hr by leaf disk method. In kind it is functional.
For experiment [12], the system named is Achaea janata. Put plainly: Insecticidal activity against Achaea janata assessed as larval duration at 2 ug/larva administered through topical application (reference value: 7.3 +/- 0.1 days). In kind it is functional.
Experiment [13] deals with Achaea janata. Nature of the experiment: Antifeedant activity against Achaea janata by conventional no-choice disk method. It is filed as functional.
For experiment [14], the system named is Achaea janata. Put plainly: Insecticidal activity against Achaea janata assessed as adult deformity at 4 ug/larva administered through topical application. In kind it is functional.
Experiment [15] has as its system Achaea janata. Put plainly: Insecticidal activity against Achaea janata assessed as adult emergence at 2 ug/larva administered through topical application (reference value: 98.8 +/- 0.5 %). In kind it is functional.
The subject of experiment [16] is Achaea janata. Nature of the experiment: Insecticidal activity against Achaea janata assessed as pupal weight at 2 ug/larva administered through topical application (reference value: 696.4 +/- 2.6 mg). In kind it is functional.
The test system of experiment [17] is Achaea janata. Nature of the experiment: Insecticidal activity against Achaea janata assessed as pupal duration at 2 ug/larva administered through topical application (reference value: 10.3 +/- 0.1 days). In kind it is functional.
Experiment [18] relates to Achaea janata. Put plainly: Antifeedant activity against Achaea janata at 10 ug/cm2 by conventional no-choice disk method. It is filed as functional.
Experiment [19] has as its system Achaea janata. Nature of the experiment: Antifeedant activity against Achaea janata at 1 ug/cm2 by conventional no-choice disk method. It is filed as functional, organism-based.
The test system of experiment [20] is Achaea janata. Put plainly: Insecticidal activity against Achaea janata assessed as larval duration at 4 ug/larva administered through topical application (reference value: 7.3 +/- 0.1 days). In kind it is functional.

For `COc1c(CC=C(C)C)c2c(c(O)c1C(=O)C(=O)c1ccc(O)cc1)C=CC(C)(C)O2`, the Activity in the experiment with Achaea janata [1] came to 515.4 mg; with Achaea janata [3] it was 6.7%; with Achaea janata [5], 16.2%; in the experiment on Achaea janata [6], 100%; in the experiment on Achaea janata [14], 19%; in the experiment on Achaea janata [15] it was 34.5%. For the same compound, in the experiment on Achaea janata [16], the Activity was 524.4 mg. Further, the mortality in the experiment with Achaea janata [2] is recorded as 15.1%; with Achaea janata [4] it was 31.6%; in the experiment on Achaea janata [7], 39.3%; in the experiment with Achaea janata [10] it was 20%. The Time was found to be 13.5 days in the experiment with Achaea janata [8], 7.8 days with Achaea janata [12], 13 days in the experiment on Achaea janata [17] and 8.5 days in the experiment on Achaea janata [20]. For the same compound, the AFI entry with Achaea janata [9] and with Achaea janata [19] was “inactive” throughout. This compound gave an LD50 with Achaea janata [11] of 3.56 microg/cm2. The compound further returned an ED50 in the experiment on Achaea janata [13] of 3.31 microg/cm2. In the experiment on Achaea janata [18], this compound registered an AFI of 96.8%.
With `COc1c2c(c(CC=C(C)C)c(O)c1C(=O)C(=O)c1ccc(O)cc1)OC(C)(C)C=C2` [Derrisdione A], the Activity came out at 597.8 mg in the experiment on Achaea janata [1]; 29.8% in the experiment with Achaea janata [3]; 19.5% in the experiment with Achaea janata [5]; 18.2% in the experiment on Achaea janata [6]; 21.1% in the experiment with Achaea janata [14]; 35.4% in the experiment on Achaea janata [15]. Further, the Activity with Achaea janata [16] was determined as 592.6 mg. Further, the mortality with Achaea janata [2] is listed as 0%; in the experiment with Achaea janata [4] it was 36.2%; in the experiment on Achaea janata [7] it was 0%; with Achaea janata [10] it was 29.8%. In addition, the Time in the experiment with Achaea janata [8] is 12.5 days; in the experiment with Achaea janata [12], 9.3 days; in the experiment on Achaea janata [17], 10.9 days; in the experiment with Achaea janata [20], 10.5 days. For the same compound, the AFI entry with Achaea janata [9] and in the experiment on Achaea janata [19] was “inactive” throughout. Moreover, the LD50 entry with Achaea janata [11] was “inactive”. This compound also displayed an ED50 in the experiment with Achaea janata [13] of 7.18 microg/cm2. Further, the AFI in the experiment with Achaea janata [18] is on record as 58.6%.
Take `O=c1c(-c2ccc(O)cc2)coc2cc(O)cc(O)c12` [GENISTEIN]: the Activity in the experiment with Achaea janata [1] is given as 532 mg; in the experiment with Achaea janata [3] it was 7.7%; with Achaea janata [5] it was 10.6%; in the experiment with Achaea janata [6], 100%; with Achaea janata [14], 11.8%; in the experiment on Achaea janata [15], 27%. Moreover, the Activity in the experiment with Achaea janata [16] turned out to be 518 mg. In addition, the mortality came out at 31% with Achaea janata [2], 22.5% with Achaea janata [4], 48.6% in the experiment with Achaea janata [7] and 17.2% with Achaea janata [10]. The AFI result in the experiment on Achaea janata [9] and with Achaea janata [19] was “inactive” each time. In the experiment on Achaea janata [11], this compound displayed an LD50 of 3.29 microg/cm2. For the same compound, the figures for the Time in the experiment with Achaea janata [12], in the experiment on Achaea janata [17] and in the experiment on Achaea janata [20] were 7.8 days, 13.1 days and 10.3 days, respectively. For the same compound, in the experiment on Achaea janata [13], the ED50 was 3.22 microg/cm2. In addition, the AFI with Achaea janata [18] is recorded as 97.7%.
Take `CC(C)=CCc1c2c(c(O)c3c(=O)cc(-c4ccc(O)cc4)oc13)C=CC(C)(C)O2` [LAXIFOLIN]: the Activity turned out to be 552 mg with Achaea janata [1]; 24.9% with Achaea janata [3]; 0% in the experiment with Achaea janata [5]; 0% in the experiment with Achaea janata [6]; 2.3% in the experiment on Achaea janata [14]; 59.6% with Achaea janata [15]. The Activity with Achaea janata [16] is 567.2 mg. Besides, the mortality is recorded as 20.6% in the experiment with Achaea janata [2], 27.4% in the experiment with Achaea janata [4], 25.2% with Achaea janata [7] and 12% with Achaea janata [10]. Also, the Time was determined as 14.1 days with Achaea janata [8], 8.5 days with Achaea janata [12], 10.7 days in the experiment on Achaea janata [17] and 11.1 days in the experiment on Achaea janata [20]. In addition, the AFI entry in the experiment on Achaea janata [9] and in the experiment with Achaea janata [19] was “inactive” throughout. Also, in the experiment on Achaea janata [11], the LD50 entry was “inactive”. Moreover, the ED50 entry in the experiment on Achaea janata [13] is “inactive”. In addition, the AFI in the experiment on Achaea janata [18] is 2.6%.
